Assay results: ChEMBL document CHEMBL5316308, “BET-HDAC Dual Inhibitors for Combinational Treatment of Breast Cancer and Concurrent Candidiasis” (J Med Chem, 2023)
≈ marks a conversion by molar mass, not a printed value. Calls of active or inactive are those of the source. The rule behind the calls is not given here.

Assays:
Candida albicans [1] = experiment: microbe, parasite or virus in culture; format: functional; conditions: 0304103, time 48 hrs
Description: Synergistic antifungal activity against azole-resistant Candida albicans 0304103 assessed as fungal growth inhibition measured after 48 hrs in presence of FLC by CLSI based micro-dilution broth method

[2] = target: Bromodomain-containing protein 2 (Homo sapiens, UniProt P25440); experiment: Inhibition of recombinant BRD2 BD1 (unknown origin) incubated for 120 mins by TR-FRET assay
MDA-MB-231 [3] = experiment: Upregulation of acetyl-H3 level in human MDA-MB-231 cells incubated for 24 hrs by Western blot analysis; format: functional, cell-based; conditions: dose 0.2-5 µM
MDA-MB-231 [4] = experiment: Induction of apoptosis in human MDA-MB-231 cells assessed as late apoptotic cells at 2.5 uM incubated for 48 hrs by Annexin V-FITC/PI staining based flow cytometry relative to control; format: functional
Candida albicans [5] = experiment: Synergistic antifungal activity FLC-resistant Candida albicans 0304103 assessed as hyphal formation at 32 ug/ml incubated for 3 hrs in presence of FLC by inverse fluorescent microscopy; format: functional, organism-based; conditions: dose 32.0 µg/ml
MDA-MB-231 [6] = experiment: Induction of apoptosis in human MDA-MB-231 cells assessed as late apoptotic cells at 10 uM incubated for 48 hrs by Annexin V-FITC/PI staining based flow cytometry relative to control; format: functional
Candida albicans [7] = experiment: Synergistic antifungal activity against azole-resistant Candida albicans 0304103 assessed as fungal growth inhibition measured upto 24 hrs in presence of FLC by absorbance based assay; format: functional, organism-based; conditions: dose 4-16 µg/ml
MDA-MB-231 [8] = experiment: Induction of apoptosis in human MDA-MB-231 cells assessed as late apoptotic cells at 5 uM incubated for 48 hrs by Annexin V-FITC/PI staining based flow cytometry relative to control; format: functional
[9] = target: Bromodomain-containing protein 3 (Homo sapiens, UniProt Q15059); experiment: Inhibition of recombinant BRD3 BD1 (unknown origin) incubated for 120 mins by TR-FRET assay
Histone deacetylase 8 = target: T1, Histone deacetylase 8 (Homo sapiens, UniProt Q9BY41); experiment: Inhibition of C-terminal His-tagged full-length recombinant human HDAC8 expressed in baculovirus infected Sf9 insect cells using Ac-Leu-Gly-Lys(Tfa)-AMC as substrate incubated for 30 mins by fluorescence based assay
T1 sequence (Q9BY41 whole entry): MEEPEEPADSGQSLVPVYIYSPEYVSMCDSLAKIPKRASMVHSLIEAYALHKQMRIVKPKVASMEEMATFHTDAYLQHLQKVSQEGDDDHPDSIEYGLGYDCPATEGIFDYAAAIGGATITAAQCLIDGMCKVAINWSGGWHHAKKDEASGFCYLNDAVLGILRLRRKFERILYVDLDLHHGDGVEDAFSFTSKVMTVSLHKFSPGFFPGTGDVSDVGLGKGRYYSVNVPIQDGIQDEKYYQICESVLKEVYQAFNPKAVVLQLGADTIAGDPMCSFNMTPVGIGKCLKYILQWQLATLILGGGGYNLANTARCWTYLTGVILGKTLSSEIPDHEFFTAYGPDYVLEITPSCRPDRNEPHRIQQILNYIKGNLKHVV

Cryptococcus neoformans = experiment: Antifungal activity against Cryptococcus neoformans H99 assessed as fungal growth inhibition measured after 48 hrs by CLSI based micro-dilution broth method; format: functional
Candida albicans [10] = experiment: Antifungal activity FLC-resistant Candida albicans 0304103 assessed as hyphal formation at 32 ug/ml incubated for 3 hrs by inverse fluorescent microscopy; format: functional, organism-based; conditions: dose 32.0 µg/ml
Candida albicans [11] = experiment: microbe, parasite or virus in culture; format: functional; conditions: 0304103, time 48 hrs; remark: listed apart in the source
Description: Synergistic antifungal activity against azole-resistant Candida albicans 0304103 assessed as fungal growth inhibition measured after 48 hrs by CLSI based micro-dilution broth method

MDA-MB-231 [12] = experiment: Downregulation of c-Myc expression in human MDA-MB-231 cells incubated for 24 hrs by Western blot analysis; format: functional, cell-based; conditions: dose 0.2-5 µM

Chain of Bromodomain-containing protein 3 (Q15059 whole entry): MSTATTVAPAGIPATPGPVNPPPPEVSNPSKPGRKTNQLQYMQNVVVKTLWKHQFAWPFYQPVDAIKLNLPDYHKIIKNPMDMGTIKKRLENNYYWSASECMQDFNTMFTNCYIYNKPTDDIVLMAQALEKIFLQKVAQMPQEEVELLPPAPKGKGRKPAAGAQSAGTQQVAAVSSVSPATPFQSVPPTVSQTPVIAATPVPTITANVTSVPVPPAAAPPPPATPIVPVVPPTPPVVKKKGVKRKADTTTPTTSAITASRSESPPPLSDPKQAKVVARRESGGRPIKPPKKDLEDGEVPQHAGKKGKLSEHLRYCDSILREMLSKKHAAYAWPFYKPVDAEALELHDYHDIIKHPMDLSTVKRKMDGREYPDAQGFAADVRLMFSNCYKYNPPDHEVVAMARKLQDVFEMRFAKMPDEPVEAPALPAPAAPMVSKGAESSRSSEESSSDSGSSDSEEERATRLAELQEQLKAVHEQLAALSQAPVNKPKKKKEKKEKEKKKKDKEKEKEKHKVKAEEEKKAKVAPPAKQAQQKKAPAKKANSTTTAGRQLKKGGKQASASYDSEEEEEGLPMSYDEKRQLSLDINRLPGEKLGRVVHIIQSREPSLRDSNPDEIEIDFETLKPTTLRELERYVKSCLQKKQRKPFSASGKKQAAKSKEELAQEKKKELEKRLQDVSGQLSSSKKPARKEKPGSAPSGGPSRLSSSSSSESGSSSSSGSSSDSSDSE
Chain of Bromodomain-containing protein 2 (P25440 whole entry): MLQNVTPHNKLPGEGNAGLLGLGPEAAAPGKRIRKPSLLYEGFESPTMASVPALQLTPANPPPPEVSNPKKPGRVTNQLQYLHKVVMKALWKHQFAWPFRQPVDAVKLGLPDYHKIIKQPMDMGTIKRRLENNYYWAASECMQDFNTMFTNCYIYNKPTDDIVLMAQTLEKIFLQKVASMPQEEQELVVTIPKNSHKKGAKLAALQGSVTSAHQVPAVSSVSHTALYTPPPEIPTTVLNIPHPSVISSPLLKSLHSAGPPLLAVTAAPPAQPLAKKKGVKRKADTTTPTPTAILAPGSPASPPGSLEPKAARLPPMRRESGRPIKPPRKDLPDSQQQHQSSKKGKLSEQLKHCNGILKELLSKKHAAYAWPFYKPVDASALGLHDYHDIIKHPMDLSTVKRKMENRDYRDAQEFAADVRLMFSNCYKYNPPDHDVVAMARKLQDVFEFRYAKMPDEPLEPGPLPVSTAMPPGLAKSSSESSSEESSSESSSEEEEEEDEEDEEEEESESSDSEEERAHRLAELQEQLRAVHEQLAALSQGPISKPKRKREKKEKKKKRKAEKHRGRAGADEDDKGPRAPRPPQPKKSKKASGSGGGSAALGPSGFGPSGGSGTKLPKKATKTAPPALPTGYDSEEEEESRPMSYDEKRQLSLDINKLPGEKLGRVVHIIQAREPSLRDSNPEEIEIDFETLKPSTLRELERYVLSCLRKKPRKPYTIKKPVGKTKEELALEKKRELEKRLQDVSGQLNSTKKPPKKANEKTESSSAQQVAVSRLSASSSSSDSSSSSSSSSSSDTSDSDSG

Row | SMILES | MIC80 (Candida albicans [1]) | IC50 [2] | Activity (MDA-MB-231 [3]) | Activity (MDA-MB-231 [4]) | Activity (Candida albicans [5]) | Activity (MDA-MB-231 [6]) | Activity (Candida albicans [7]) | Activity (MDA-MB-231 [8]) | IC50 [9] | IC50 (Histone deacetylase 8) | MIC80 (Cryptococcus neoformans) | Activity (Candida albicans [10]) | MIC80 (Candida albicans [11]) | Activity (MDA-MB-231 [12])
1 | COc1cc2c(cc1-c1c(C)noc1C)[nH]c1ncnc(NCCCCCCC(=O)NO)c12 | 0.5 µg/mL (≈ 1.1 µM) | 0.174 µM | Dose-Dependent Effect | 25.19% | inactive | 69.85% | Dose-Dependent Effect | 58.39% | 0.113 µM | 0.784 µM | 8 µg/mL (≈ 17.7 µM) | Active | > 64 µg/mL | Dose-Dependent Effect
2 | COc1cc2c(cc1-c1c(C)noc1C)[nH]c1nc(C)nc(NCCCCCCC(=O)NO)c12 | 8 µg/mL (≈ 17.1 µM) | 2.01 µM | Dose-Dependent Effect | 8.35% | inactive | 49.38% | Dose-Dependent Effect | 46.61% | 2.59 µM | 0.782 µM | 8 µg/mL (≈ 17.1 µM) | Active | > 64 µg/mL | Dose-Dependent Effect
